For twelve molecules, EC50 results are on record in patent US20220281825A1 (priority 2016, published 2022).

What all share (experiment): organism not typed
The test system of one assay is LASV-p. In kind it is cell-based, Lassa (LASV). To be noted: Vero, 24 h, read-out: LASV-p EC50 (nM).
For a further assay, the system named is MACV-p. In kind it is cell-based, Machupo (MACV). The settings on record: Vero, 24 h, read-out: MACV-p EC50 (nM).
Another assay concerns TCRV-p. In kind it is cell-based. To be noted: Vero, 24 h, read-out: TCRV-p EC50 (nM).
A further assay relates to JUNV-p. In kind it is cell-based, Junin (JUNV). The settings on record: Vero, 24 h, read-out: JUNV-p EC50 (nM).

Bounds are passed on as bounds.

As for `COc1ccc(-n2cnc3ccc(Cc4ccc(C)cc4)cc32)cc1` [Example A9, 1-(4-methoxyphenyl)-6-[(4-methylphenyl)methyl]-1H-1,3-benzodiazole], the EC50 in the assay with LASV-p is over 100 nM.
Consider `COc1ccc(-n2cnc3ccc(-c4ccc(S(C)(=O)=O)cc4)cc32)cc1` [Example A11, 6-(4-methanesulfonylphenyl)-1-(4-methoxyphenyl)-1H-1,3-benzodiazole], for which the EC50 in the assay on MACV-p, in the assay on TCRV-p, with JUNV-p and with LASV-p was over 25 nM in each case.
On to `COc1ccc(-n2cnc3c(-c4ccc(C(C)C)cc4)cccc32)cc1` [Example A19, 1-(4-methoxyphenyl)-4-[4-(propan-2-yl)phenyl]-1H-1,3-benzodiazole], for which the EC50 in the assay with LASV-p was over 100 nM.
On the same count and under the same terms, next, `COc1ccc(-n2cnc3c(-c4cccc(C(C)C)c4)cccc32)cc1` [Example A20, 1-(4-methoxyphenyl)-4-[3-(propan-2-yl)phenyl]-1H-1,3-benzodiazole]: over 100 nM.
Turning to `COc1ccccc1-n1cnc2ccc(-c3ccc(C(C)(C)O)cc3)cc21` [Example A22, 2-{4-[1-(2-methoxyphenyl)-1H-1,3-benzodiazol-6-yl]phenyl}propan-2-ol], the EC50 in the assay with MACV-p, in the assay with TCRV-p, in the assay on JUNV-p and in the assay on LASV-p was over 25 nM in each case.
For the molecule `COc1cccc(-n2cnc3ccc(-c4ccc(C(C)(C)O)cc4)cc32)c1` [Example A23, 2-{4-[1-(3-methoxyphenyl)-1H-1,3-benzodiazol-6-yl]phenyl}propan-2-ol], the EC50 in the assay on MACV-p, in the assay on TCRV-p, in the assay on JUNV-p and with LASV-p was over 25 nM each time.
Turning to `CC(=O)c1ccc(-c2ccc3ncn(-c4ccc5[nH]ccc5c4)c3c2)cc1` [Example A28, 1-{4-[1-(1H-indol-5-yl)-1H-1,3-benzodiazol-6-yl]phenyl}ethan-1-one], the EC50 was over 25 nM with MACV-p, over 25 nM in the assay with TCRV-p, 7.29 nM in the assay with JUNV-p and 11 nM with LASV-p.
With `c1cc2cc(-c3ccc4ncn(-c5ccc6[nH]ccc6c5)c4c3)ccc2[nH]1` [Example A29, 1,6-bis(1H-indol-5-yl)-1H-1,3-benzodiazole], the concentration giving a half-maximal response (EC50) with MACV-p amounted to 11.1 nM; with TCRV-p, 15.2 nM; with JUNV-p, 6.96 nM; in the assay on LASV-p it was 0.53 nM.
Take `CC(C)Oc1ccc(-n2cnc3cnc(-c4ccc(C(C)(C)O)cc4)cc32)cc1` [Example B5, 2-(4-{1-[4-(propan-2-yloxy)phenyl]-1H-imidazo[4,5-c]pyridin-6-yl}phenyl)propan-2-ol]: the EC50 in the assay with MACV-p is over 25 nM; with TCRV-p, over 25 nM; in the assay on JUNV-p, 13.4 nM; with LASV-p, over 25 nM.
Consider `CC(=O)c1ccc(-c2cc3c(cn2)ncn3-c2ccc(OC(C)C)cc2)cc1` [Example B8, 1-(4-{1-[4-(propan-2-yloxy)phenyl]-1H-imidazo[4,5-c]pyridin-6-yl}phenyl)ethan-1-one], for which the EC50 with MACV-p, with TCRV-p, in the assay with JUNV-p and in the assay with LASV-p was over 25 nM throughout.
Consider `CC(C)Oc1ccc(-c2cnc3ccc(-c4ccc(N)nc4)cn23)cc1` [Example C14, 5-{3-[4-(propan-2-yloxy)phenyl]imidazo[1,2-a]pyridin-6-yl}pyridin-2-amine], for which the EC50 in the assay with MACV-p, with TCRV-p, in the assay on JUNV-p and in the assay with LASV-p was over 25 nM each time.
As for `CC(C)Oc1ccc(-c2cnc3ccc(-c4ccc(C(N)=O)cc4)cn23)cc1` [Example C16, 4-{3-[4-(propan-2-yloxy)phenyl]imidazo[1,2-a]pyridin-6-yl}benzamide], the EC50 with MACV-p, with TCRV-p, in the assay on JUNV-p and in the assay on LASV-p was over 25 nM each time.

The EC50 is the concentration at which the effect is half-maximal.
